According to US6716603B2, “Nucleic acids encoding a chloride channel protein” (Genaera Corporation, priority 1998, dated 2004):

B1: mIL-9: recombinant murine IL-9 (protein, UniProt P15247 19-144, looked up)
Interleukin-9: QRCSTTWGIRDTNYLIENLKDDPPSKCSCSGNVTSCLCLSVPTDDCTTPCYREGLLQLTNATQKSRLLPVFHRVKRIVEVLKNITCPSFSCEKPCNQTMAGNTLSFLKSLLGTFQKTEMQRQKSRP

Assays:
IL-9 induced eotaxin = IL-9 induced eotaxin production in murine primary lung cultures (eotaxin ELISA); format: cell-based, mouse; conditions: 100 μM channel blocker, FVB primary lung cultures with mIL-9, FIG. 18
Excerpt: IL-9 is known to induce eotaxin from lung epithelial cells (Dong, et.al., submitted for publication, Eur. J. Immunol.). In situ expression analysis of IL-9 transgenic mice found ICACC-1 expression to be predominant in airway epithelial cells. These epithelial cells also produce eotaxin, and eotaxin can be induced by IL-9 in these cells as well as primary lung cultures from a variety of different mouse strains. Because eotaxin and ICACC-1 are both induced by IL-9 in lung epithelial cells, it is possible that inhibiting ICACC-1 can inhibit eotaxin or other cytokines such as IL-4 or IL-13 (Doucet et al., J. Clin. Invest. 101:2129-2139, 1998.) that induce eotaxin production in lung epithelial cells. To test this hypothesis, we employed a murine primary lung assays, where lung cells were harvested from FVB/NJ mice as described in Example 5A and processed for in vitro analysis as described in Example 6 for human primary lung culture. Cells were incubated with or without 20 ng/ml recombinant mIL-9 for 48 hours. After 48 hours, conditioned supernatant was collected and analyzed for murine eotaxin production using an eotaxin ELISA kit (R&D Systems). Recombinant murine eotaxin was used to generate a standard curve. […] A culture derived from IL-9 transgenic mouse lung (TG5 lane) was used as a positive control. […]

ICACC-1 = ICACC-1 RNA expression in lung after intratracheal IL-9 (RT-PCR); format: in vivo, mouse; conditions: C57B6 mice, 50 μl of 0.1 mg/ml IL-9 intratracheal daily for ten days, FIG. 8
Procedure: Message was analyzed by PCR as described (Nicolaides et al., 1995) and via Northern blot. Primers used to generate murine ICACC-1 message were; sense 5′-[…]-3′ (SEQ ID NO:7) (nucleotides 689-712) and antisense 5′-[…]-3′ (SEQ ID NO:8) (nucleotides 1041-1064) which produce a gene product of 376 bp. DHFR was assayed as an internal control to measure for cDNA integrity using primers previously described (Nicolaides et al., 1991). Amplification conditions used were 95° C. for 30 seconds, 58° C. for 1.5 minutes and 72° C. for 1.5 minutes for 35 cycles. For Northern blot analysis, total RNA derived from Tg5 or FVB lungs was electrophoresed on 1.5% formaldehyde gels, transferred to nylon membranes and probed with a DNA fragment comprising the murine ICACC-1 cDNA.
To confirm that the expression of IL-9 was critically related to the expression of ICACC-1 and to control for genetic background specifically, recombinant murine IL-9 was introduced into the lung of murine strain C57B6. Recombinant IL-9 was instilled into the trachea of anesthetized mice by addition of 50 μl of a 0.1 mg/ml IL-9 solution or vehicle alone (0.1% bovine serum albumin) daily for ten days. […]
Expression of ICACC-1 RNA was measured as described in Example 3.

Row | Molecule | eotaxin production inhibited (IL-9 induced eotaxin) | ICACC-1 RNA expression in lung (RT-PCR) (ICACC-1)
1 | O=S(=O)(O)c1cc(N=C=S)ccc1C=Cc1ccc(N=C=S)cc1S(=O)(=O)O [DIDS] | 33% | –
2 | CC(=O)Nc1ccc(C=Cc2ccc(N=C=S)cc2S(=O)(=O)O)c(S(=O)(=O)O)c1 [SITS] | 41% | –
3 | B1 | – | expression increased
